Assays:
[1] = UV-vis spectrum, verification of absorption wavelength; format: physicochemical
Description: It can be said that the longer the wavelength of light used for a living body, the lower the cytotoxicity and the better the tissue permeability.

[2] = molecular target: T1, aggregated tau overexpressed in HEK cells (Homo sapiens, UniProt P10636); assay: Intracellular photooxygenation reaction evaluated by Western blotting; format: cell-based; conditions: for crosslinked product (more than 250 kDa) of the photooxygenation reaction: 595 nm light 15 minutes
T1 construct: expressed in transfected cells; host or cells: HEK cells (line called Fs17)
T1 sequence (P10636 2-412 isoform P10636-7): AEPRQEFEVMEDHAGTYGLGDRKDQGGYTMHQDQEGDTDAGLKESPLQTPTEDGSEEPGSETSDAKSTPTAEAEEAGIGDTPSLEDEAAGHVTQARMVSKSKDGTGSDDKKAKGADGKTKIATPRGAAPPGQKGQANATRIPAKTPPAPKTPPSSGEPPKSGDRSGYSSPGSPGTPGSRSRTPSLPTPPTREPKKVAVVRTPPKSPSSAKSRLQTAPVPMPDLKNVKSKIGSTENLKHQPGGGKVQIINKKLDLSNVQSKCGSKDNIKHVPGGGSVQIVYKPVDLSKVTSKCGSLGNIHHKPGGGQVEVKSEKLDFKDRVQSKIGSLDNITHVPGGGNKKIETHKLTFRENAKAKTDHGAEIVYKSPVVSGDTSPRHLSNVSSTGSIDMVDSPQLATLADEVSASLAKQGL
Experimental: An intracellular oxygenation reaction by the compounds PzT, OMe, Q, and J of the present invention was performed using HEK cells in which aggregated tau was overexpressed. Specifically, 10 uM of the compound of the present invention was added to a cell medium, and then irradiated with light at 595 nm for 15 minutes. After the reaction, viable cells were collected and lysed, and then the intracellular photooxygenation reaction was evaluated by measurement with Western blotting (FIG. 2). In a case where the compound of the present invention was not added, tau was detected between 75 kDa and 100 kDa by the 5A6 antibody that is a tau specific antibody, and a theoretical molecular weight of the overexpressed tau was about 70 kDa, and therefore, the tau was identified as a monomer.
Similarly, the compounds of the present invention C2OH, O, and O2 were also subjected to an intracellular oxygenation reaction. The cells overexpressing aggregated tau were incubated with a medium containing 1 μM of the compound of the present invention for 10 minutes. Thereafter, light of 595 nm was applied for 15 minutes. Reaction progress was identified and quantified by Western blotting measurements (FIG. 3). […] As a result, it was confirmed that a crosslinked product, which is one of products of a photooxygenation reaction, was detected in a region of more than 250 kDa on the right side of the lane to which the compound was added, whereas no crosslinked body was provided under non-light irradiation conditions, that is, on the left side of each lane in all the compounds, and the reaction proceeded in a light-dependent manner.

overexpressed tau = molecular target: T2, overexpressed tau (Homo sapiens, UniProt P10636); assay: LC-MS/MS analysis of methionine oxidation of overexpressed tau after intracellular reaction; format: cell-based; conditions: monomeric tau, trypsin digestion, FIG. 6
T2 construct: expressed in transfected cells; host or cells: HEK cells (line called Fs17)
T2 sequence (P10636 1-412 isoform P10636-7): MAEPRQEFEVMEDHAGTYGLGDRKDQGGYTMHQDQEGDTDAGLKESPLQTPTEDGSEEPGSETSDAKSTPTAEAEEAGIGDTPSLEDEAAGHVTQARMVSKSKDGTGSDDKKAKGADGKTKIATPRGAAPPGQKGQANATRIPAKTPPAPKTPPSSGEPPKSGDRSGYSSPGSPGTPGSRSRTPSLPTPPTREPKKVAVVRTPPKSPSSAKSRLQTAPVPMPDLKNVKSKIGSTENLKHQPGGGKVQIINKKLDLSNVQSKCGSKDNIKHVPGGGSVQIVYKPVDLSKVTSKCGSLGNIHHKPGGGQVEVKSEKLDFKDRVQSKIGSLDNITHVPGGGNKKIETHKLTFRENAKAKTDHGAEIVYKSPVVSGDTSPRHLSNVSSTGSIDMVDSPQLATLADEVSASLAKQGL
Experimental: LC-MS/MS analysis was performed on the reaction product in order to confirm the production of side chain oxygenates that were difficult to specifically detect as a result of overlapping with unreacted substances in Western blotting. Since side chain oxygenates are mainly produced by oxidation of methionine side chains to sulfoxide, it was focused on 4 methionines contained in overexpressed tau having a total length of 412 amino acids. The intracellular protein after the reaction was separated according to the molecular weight by SDS-page, monomeric tau was cut out by trypsin enzyme digestion, and LC-MS/MS measurement was performed. A ratio of the detection intensity of the methionine oxidant was calculated from the sum of the detection intensities of the methionine reductant and the oxidant obtained from MS1 in the LC-MS/MS spectrum (FIG. 6).

[3] = 10 uM compound in cell medium, 5A6 antibody, FIG. 2

| SMILES | λmax (nm), maximum absorption wavelength [1] [nm] | photooxygenation activity relative to the compound Q ([2]; 1 μM compound, 595 nm 15 minutes, quantified by Western blotting) | crosslinked product (more than 250 kDa) of the photooxygenation reaction ([2]; 1 μM compound, 10 minutes incubation, light-dependent, FIG. 3) | crosslinked product (more than 250 kDa) of the photooxygenation reaction [2, 3] | oxygenation level of methionine compared with control (Vehicle) (overexpressed tau) |
| --- | --- | --- | --- | --- | --- |
| CN(C)c1ccc(/C=C/C=C/c2nc3ccc(Br)nc3s2)cc1 [Compound PT, 4-((1E,3E)-4-(5-bromothiazolo[5,4-b]pyridin-2-yl)butadien-1,3-dien-1-yl)-N,N-dimethylaniline] | 437 |  |  |  |  |
| OCCN1CCCc2cc(/C=C/C=C/c3nc4ncc(Br)nc4s3)ccc21 [Compound C2OH, 2-(6-((1E,3E)-4-(6-bromothiazolo[4,5-b]pyrazin-2-yl)butadien-1,3-dien-1-yl)-3,4-dihydroquinolin-1(2H)-yl)ethane-1-ol] |  | twice or more | detected |  |  |
| CN(C)c1ccc(/C=C/C=C/c2nc3ncc(Br)nc3s2)cc1 [Compound PzT, 4-((1E,3E)-4-(6-Bromothiazolo[4,5-b]pyrazin-2-yl)butadien-1,3-dien-1-yl)-N,N-dimethylaniline] | 468 |  |  | detected |  |
| COc1cc(N(C)C)cc(OC)c1/C=C/C=C/c1nc2ncc(Br)nc2s1 [Compound OMe, 4-((1E,3E)-4-(6-Bromothiazolo[4,5-b]pyrazin-2-yl)butadien-1,3-dien-1-yl)-3,5-dimethoxy-N,N-dimethylaniline] | 495 |  |  | detected |  |
| Brc1cnc2nc(/C=C/C=C/c3cc4c5c(c3)CCCN5CCC4)sc2n1 [Compound J, 6-Bromo-2-((1E,3E)-4-(2,3,6,7-tetrahydro-1H,5H-pyrido[3,2,1-ij]quinolin-9-yl)butadien-1,3-dien-1-yl)thiazolo[4,5-b]pyrazine] | 508 |  |  | detected |  |
| CN1CCCc2cc(/C=C/C=C/c3nc4ncc(Br)nc4s3)ccc21 [Compound Q, 6-Bromo-2-((1E,3E)-4-(1-methyl-1,2,3,4-tetrahydroquinolin-6-yl)butadiene-1,3-dien-1-yl)thiazolo[4,5-b]pyrazine] | 500 |  |  | detected | did not change |

From US20250313576A1, “COMPOUND FOR PHOTOO[…] AND MEDICINAL COMPOSITION CONTAINING SAME” (The University of Tokyo, priority 2021, published 2025)
